Measurements from PubChem BioAssay (NCI).
“And” between values parts separate entries of the source, which are not always exact repeats. Equal entries are not always repeated.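 Values below derive from 48-hour exposures of cells grown in 96-well plates, with endpoints linearly interpolated between the two concentrations bracketing the appropriate inhibition level. GI50 = concentration required for 50% inhibition of growth. The concentration for full growth arrest is given as TGI.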

Legend:
Test in all cases: DTP human tumour cell line panel, 48 h
[1] = tested on: LOX IMVI melanoma
[2] = tested on: COLO 205 colon
[3] = tested on: OVCAR-4 ovarian
[4] = tested on: T-47D breast
[5] = tested on: HOP-92 NSCLC
[6] = tested on: SK-OV-3 ovarian
[7] = tested on: SF-295 CNS
[8] = tested on: HCT-116 colon
[9] = tested on: NCI/ADR-RES ovarian
[10] = tested on: SW-620 colon

Structure (SMILES)	TGI [1]	TGI [2]	TGI [3] [µM]	TGI [4] [µM]	TGI [5]	TGI [6] [µM]	TGI [7] [µM]	TGI [8]	TGI [9] [µM]	TGI [10]	GI50 [1] [µM]	GI50 [2] [nM]	GI50 [3] [µM]	GI50 [4] [nM]	GI50 [5] [µM]	GI50 [6] [µM]	GI50 [7] [µM]	GI50 [8] [nM]	GI50 [9] [µM]	GI50 [10] [nM]
COc1cc2ccc(/C=C\[N+](=O)[O-])cc2cc1OC	3.42 µM	15.9 µM	7.56	12.5	10.1 µM	28.4	33.8	5.16 µM	17.2	> 24.6 µM										
O=C(O)C(/C=C/c1ccccc1)c1ccccc1 (centres undefined)	> 100 µM	> 100 µM		> 100	> 100 µM	> 100	> 100	> 100 µM	> 100	> 100 µM										
CC(C)N(Cc1ccccc1)c1c(S)ssc1=S	15.5 µM	4.26 µM	> 100	18.6	3.79 µM	9.59	11.7	26.8 µM	> 100	12.7 µM	3.08	1560	0.641	1170	0.342	2.47	1.19	2720	3.33	2690
COc1ccc(-c2cn(-c3cc(OC)c(OC)c(OC)c3)c(SCc3ccccc3)n2)cc1OC	> 100 µM	> 100 µM	> 100	> 100	> 100 µM	> 100	> 100	> 100 µM	> 100	> 100 µM	> 100	> 100000	> 100	41500	> 100	> 100	> 100	> 100000	> 100	> 100000
CCC1C2Cc3ccc(O)cc3C1(CC)CCN2C (centres undefined)	> 100 µM	> 100 µM	> 100	> 100	> 100 µM	> 100	> 100	> 100 µM	> 100	> 100 µM										
COc1cc(CSc2nc3ccc(C)cc3c(=O)n2-c2ccccc2)cc(OC)c1OC	> 100 µM	3.97 µM	> 100	> 100	8.74 µM	> 100	48	> 100 µM	> 100	> 100 µM	4.13	576	4.92	1560	1.03	1.97	2.41	1030	1.26	910
O=C(CCCCCCCCC(=O)N/N=C\c1ccccc1O)N/N=C\c1ccccc1O	6.07 µM	> 35.2 µM	> 100	> 49.4	0.889 µM	15.6	31.7	15.2 µM	25.4	24.1 µM	0.273	2630	0.33	2890	0.216	0.899	1.07	459	0.514	1280
Nc1c(C(=O)c2cccc(-c3ccncc3)c2)cnn1-c1ccc(F)cc1F	> 25 µM	> 21.4 µM	> 25	> 25	> 22.9 µM	> 25	> 25	> 25 µM	> 25	> 25 µM	14.3	2090	11.4	3670	4.71	19.8	8.36	6250	3.83	3120
O=C1Nc2ccccc2/C1=C/C(=O)c1coc2c1C(=O)c1ccccc1C2=O	> 100 µM	> 100 µM	> 100	> 100	> 100 µM	> 100	> 100	> 100 µM	> 100	> 100 µM	> 100	> 100000	> 100	56900	59.7	> 100	> 100	> 100000	> 100	99600
C#Cc1c(F)ccc2cc(O)cc(-c3ncc4c(N5CC6CCC(C5)N6)nc(OC[C@@]56CCCN5C[C@H](F)C6)nc4c3F)c12	41.9 µM	45.1 µM	37.1	40.1	16.5 µM	35.6	32	14 µM	> 100	10.3 µM	15.5	16100	16.8	16300	4.01	17.7	15.9	2620	> 100	1320
COc1ccc2c(c1)c(=O)oc1cc(OC/C(C)=N\O)ccc12	> 100 µM	> 100 µM	> 100	> 100	> 100 µM	> 100	> 100	> 100 µM	> 100	> 100 µM	> 100	> 100000	> 100	> 100000	69.5	99.7	37.9	> 100000	> 100	> 100000
Cc1cc2c(cc1C)N(C(=O)CCl)CC(=O)N2	4.85 µM	3.68 µM	3.05	3.99	3.93 µM	24.6	29.6	9.77 µM	> 100	5.05 µM	0.858	2090	1.59	1970	1.59	12.2	13.6	2530	3.18	2190
CC1CCC(NC(=O)N(CCCl)N=O)CC1 (centres undefined)	39.8 µM and 52.6 µM	43.3 µM and 60.2 µM	61.1	88.1	64.2 µM and 68.8 µM	148	36.3	90.4 µM and 85.6 µM	129	37.4 µM and 71.5 µM	14.7	23100					53.7	30200		17700
COc1cc([N+](=O)[O-])c(OC)cc1-c1nc2sc(Cl)cn2c1/C(N)=N/C(=N)N	> 100 µM	6.67 µM	33.8	5.63	24 µM	> 62.1	36.7	6.41 µM	> 100	4.63 µM	4.44	2710	5.67	2310	7.06	23.7	9.94	2410	61.4	2150
